Details of data set [1]: method as in PMID 1642643. To be noted: plasma at physiological pH and temperature; cited from earlier work.
Details of data set [2]: method as in PMID 9571227. To be noted: cited from earlier work.
A further data set deals with T1, UGT1A1 (Homo sapiens, UniProt P22309).
T1 construct: purchased Corning, Inc
T1 sequence (P22309 26-533): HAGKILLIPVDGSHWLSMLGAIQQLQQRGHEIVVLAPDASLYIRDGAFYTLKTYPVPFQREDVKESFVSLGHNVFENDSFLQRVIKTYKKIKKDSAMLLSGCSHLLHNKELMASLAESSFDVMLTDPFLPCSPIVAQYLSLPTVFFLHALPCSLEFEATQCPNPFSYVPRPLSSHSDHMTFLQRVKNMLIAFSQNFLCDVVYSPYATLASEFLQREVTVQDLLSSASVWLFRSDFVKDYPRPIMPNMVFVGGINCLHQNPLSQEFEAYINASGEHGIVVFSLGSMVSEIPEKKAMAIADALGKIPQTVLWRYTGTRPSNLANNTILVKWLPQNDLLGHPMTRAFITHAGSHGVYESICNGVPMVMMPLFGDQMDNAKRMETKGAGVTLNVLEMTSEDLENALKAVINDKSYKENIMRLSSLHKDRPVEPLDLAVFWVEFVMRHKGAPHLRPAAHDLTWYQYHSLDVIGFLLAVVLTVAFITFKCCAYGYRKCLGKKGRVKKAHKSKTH
The experiment in a line: Covalent adduct formation of NSAIDs-AG with UGT1A1. Type of data set: binding. To be noted: R vs S diastereomer; 180 μM, UGT 3.4 μM, 6 h. As to the method:
The concentrations of UGT were set at 3.4 μM by the preliminary experiments on the linearity of covalent adduct formation. The covalent adduct formation of NSAIDs-AG with organelle proteins and UGT was determined according to previous reports on NSAIDs-AG with albumin with some modifications. After a deproteinization of the reaction mixture, methanol/diethyl ether (3:1) was added to the pellet. […] The concentrations of the parent NSAIDs were measured using liquid chromatography-tandem mass spectrometry (LC-MS/MS). Aliquots of 10 μL were injected into the LC-MS/MS system. The LC-MS/MS equipment consisted of an LC system (UltiMate 3000 series, Thermo Fisher Scientific, Inc.) and TSQ Endura Triple Quadrupole Mass Spectrometer with electrospray ionization (Thermo Fisher Scientific, Inc.). Finnigan Xcalibur software (Thermo Fisher Scientific, Inc.) was used for data recording and analysis. Analysis was further performed using a reversed-phase column (COSMOSIL 5C18-MSII, 2.0 mm × 150 mm, 5 μm; Nacalai Tesque, Inc.). The column temperature was set to 40 °C, and the autosampler was maintained at 10 °C. The mobile phase (A; 30% methanol in 8.5 mM ammonium formate and 0.0075% formic acid, and B; 90% methanol in 8.5 mM ammonium formate and 0.0075% formic acid) was pumped at a flow rate of 0.2 mL/min. The initial mobile phase composition was maintained at 30% mobile phase B for 1 min, changed linearly to 90% mobile phase B from 1 to 8 min, maintained for 1 min, returned to 30% mobile phase B from 9 to 10 min, and maintained for 1 min for chromatographic column equilibrium. The MS scan was operated in positive ionization mode for DIC, MEF, ZOM, KET, and NAP, or negative ionization mode, for FLU. […] The concentrations of NSAIDs were determined from a single-point calibration in every assay for NSAIDs after confirmation of linearity between area and concentrations of NSAIDs.

In another data set the target is T2, UGT2B4 (Homo sapiens, UniProt P06133).
T2 construct: purchased Corning, Inc
T2 sequence (P06133 24-528): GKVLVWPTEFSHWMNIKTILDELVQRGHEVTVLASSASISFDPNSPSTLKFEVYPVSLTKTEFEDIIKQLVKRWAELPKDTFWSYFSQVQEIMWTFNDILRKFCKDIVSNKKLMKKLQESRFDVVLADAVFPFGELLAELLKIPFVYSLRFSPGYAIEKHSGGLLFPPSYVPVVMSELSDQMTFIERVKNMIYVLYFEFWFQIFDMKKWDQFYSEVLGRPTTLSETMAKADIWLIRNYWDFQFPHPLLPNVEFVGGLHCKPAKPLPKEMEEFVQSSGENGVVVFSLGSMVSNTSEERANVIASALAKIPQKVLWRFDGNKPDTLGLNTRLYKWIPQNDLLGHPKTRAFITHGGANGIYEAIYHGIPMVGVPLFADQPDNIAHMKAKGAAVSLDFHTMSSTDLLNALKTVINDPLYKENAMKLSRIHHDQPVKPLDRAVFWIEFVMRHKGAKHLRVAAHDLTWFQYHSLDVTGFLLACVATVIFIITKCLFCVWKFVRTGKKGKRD
The experiment in a line: Covalent adduct formation of NSAIDs-AG with UGT2B4. The format is binding. To be noted: 180 μM, UGT 3.4 μM, 6 h. The protocol:
(§1) The concentrations of UGT were set at 3.4 μM by the preliminary experiments on the linearity of covalent adduct formation. The covalent adduct formation of NSAIDs-AG with organelle proteins and UGT was determined according to previous reports on NSAIDs-AG with albumin with some modifications. After a deproteinization of the reaction mixture, methanol/diethyl ether (3:1) was added to the pellet. […] The concentrations of the parent NSAIDs were measured using liquid chromatography-tandem mass spectrometry (LC-MS/MS). Aliquots of 10 μL were injected into the LC-MS/MS system. The LC-MS/MS equipment consisted of an LC system (UltiMate 3000 series, Thermo Fisher Scientific, Inc.) and TSQ Endura Triple Quadrupole Mass Spectrometer with electrospray ionization (Thermo Fisher Scientific, Inc.). Finnigan Xcalibur software (Thermo Fisher Scientific, Inc.) was used for data recording and analysis. Analysis was further performed using a reversed-phase column (COSMOSIL 5C18-MSII, 2.0 mm × 150 mm, 5 μm; Nacalai Tesque, Inc.). The column temperature was set to 40 °C, and the autosampler was maintained at 10 °C. The mobile phase (A; 30% methanol in 8.5 mM ammonium formate and 0.0075% formic acid, and B; 90% methanol in 8.5 mM ammonium formate and 0.0075% formic acid) was pumped at a flow rate of 0.2 mL/min. The initial mobile phase composition was maintained at 30% mobile phase B for 1 min, changed linearly to 90% mobile phase B from 1 to 8 min, maintained for 1 min, returned to 30% mobile phase B from 9 to 10 min, and maintained for 1 min for chromatographic column equilibrium. The MS scan was operated in positive ionization mode for DIC, MEF, ZOM, KET, and NAP, or negative ionization mode, for FLU. The conditions for electrospray ionization were set at 3500 V spray voltage for positive ionization mode and 2500 V spray voltage for negative ionization mode at 400 °C capillary temperature, and 300 °C vaporizer temperature with 40 arbitrary units of nitrogen sheath gas and 10 arbitrary units of auxiliary gas. The MS scan was operated in the positive or negative ionization mode. The selected reaction monitoring (SRM) mode was used, with argon as the collision gas at 1.5 mTorr. The mass resolution was set at 0.7 full-width at half-height (unit resolution). SRM transitions (precursor and product ions) were mass to charge ratios of (m/z) 296 > 214 for DIC (positive ionization mode), 294 > 250 for DIC (negative ionization mode), 242 > 224 for MEF, 292 > 139 for ZOM, 243 > 198 for R- and S-FLU, 255 > 209 for R- and S-KET, 231 > 185 for R- and S-NAP, and 302 > 220 for DIC-d4. The collision energies were 15 V for DIC (negative ionization mode), ZOM, MEF, FLU, KET, and NAP; 35 V for DIC (positive ionization mode); and DIC-d4. The concentrations of NSAIDs were determined from a single-point calibration in every assay for NSAIDs after confirmation of linearity between area and concentrations of NSAIDs.

Data set [3] deals with proteins of Cyt (cytosolic fraction of liver homogenate). The experiment in a line: Covalent adduct formation of NSAIDs-AG with proteins of cytosolic fraction (Cyt). The format is binding, rat. To be noted: 180 μM, 1 mg/mL, 6 h.
Data set [4] has as its system proteins of Nuc (nuclear fraction of liver homogenate). The experiment in a line: Covalent adduct formation of NSAIDs-AG with proteins of nuclear fraction (Nuc). The format is binding, rat. To be noted: 180 μM, 1 mg/mL, 6 h.
For the next data set, the target named is T3, UGT2B7 (Homo sapiens, UniProt P16662).
T3 construct: purchased Corning, Inc
T3 sequence (P16662 24-529): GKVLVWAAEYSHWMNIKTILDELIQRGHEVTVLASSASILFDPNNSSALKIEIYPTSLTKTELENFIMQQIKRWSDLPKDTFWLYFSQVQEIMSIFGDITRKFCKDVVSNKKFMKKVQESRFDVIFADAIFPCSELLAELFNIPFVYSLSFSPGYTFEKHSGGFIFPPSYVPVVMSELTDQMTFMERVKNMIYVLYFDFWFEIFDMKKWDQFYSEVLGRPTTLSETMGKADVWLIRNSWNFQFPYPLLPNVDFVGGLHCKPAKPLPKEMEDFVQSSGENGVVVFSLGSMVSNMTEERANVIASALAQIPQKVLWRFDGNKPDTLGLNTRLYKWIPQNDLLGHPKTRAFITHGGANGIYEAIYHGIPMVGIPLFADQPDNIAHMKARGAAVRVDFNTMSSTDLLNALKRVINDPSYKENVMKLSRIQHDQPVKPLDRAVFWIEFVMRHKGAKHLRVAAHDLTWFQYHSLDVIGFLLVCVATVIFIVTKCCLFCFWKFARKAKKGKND
The experiment in a line: Covalent adduct formation of NSAIDs-AG with UGT2B7. Type of data set: binding. To be noted: 180 μM, UGT 3.4 μM, 6 h. As to the method:
as §1

The test system of data set [5] is proteins of Mit (mitochondrial fraction of liver homogenate). Briefly: Covalent adduct formation of NSAIDs-AG with proteins of mitochondrial fraction (Mit). Type of data set: binding, rat. To be noted: 180 μM, 1 mg/mL, 6 h.

`CC(C(=O)OC1OC(C(=O)O)C(O)C(O)C1O)c1cccc(C(=O)c2ccccc2)c1` (stereo not shown) [R-KET-AG]: the “hydrolysis half-life in plasma compared with S-KET-AG” value in data set [1] was “shorter”. Further, in data set [2], the “acyl migration rate compared with S-KET-AG” value is reported as “higher acyl migration rate”. In addition, the “covalent adduct formation with UGT1A1 compared with the other diastereomer” value at UGT1A1 is reported as “significantly more covalent adducts”. Besides, the “amounts of covalent adducts with UGT2B (UGT2B4) relative to UGT1A isoforms” value on UGT2B4 is “relatively higher amounts of covalent adducts”. Also, the “covalent adduct formation with UGT2B4 compared with the other diastereomer” value at UGT2B4 (R vs S diastereomer) is reported as “significantly more covalent adducts”. Besides, the “amount of covalent adducts with Cyt proteins compared with the other diastereomer (S-KET-AG)” value in data set [3] is given as “higher amounts of covalent adducts”. Further, in data set [4], the “amount of covalent adducts with Nuc proteins compared with the other diastereomer (S-KET-AG)” value is reported as “higher amounts of covalent adducts”. Moreover, on UGT2B7, the “amounts of covalent adducts with UGT2B (UGT2B7) relative to UGT1A isoforms” value was “relatively higher amounts of covalent adducts”. Moreover, the “covalent adduct formation with UGT2B7 compared with the other diastereomer” value on UGT2B7 (R vs S diastereomer) was “significantly more covalent adducts”. Moreover, the “amount of covalent adducts with Mit proteins compared with the other diastereomer (S-KET-AG)” value in data set [5] is recorded as “higher amounts of covalent adducts”.

The values are drawn from publication PMC9104950, “Stereoselective Covalent Adduct Formation of Acyl Glucuronide Metabolite of Nonsteroidal Anti-Inflammatory Drugs with UDP-Glucuronosyltransferase” (International Journal of Molecular Sciences, 2022).
